Read-outs that look alike come from different tables or passages of the source. Numbered stars: 1 amine (or outer) side, 2 acyl side, 3 side chain; on linkers, the order of the positions; unused ones are H or OH. Bridge positions count the residues as written; N and C are the ends. Square brackets hold non-standard residues; d marks the D form. Peptide text beside a SMILES is read from it. Phe(4-(4-pyridyl)) = N[C@@H](Cc1ccc(-c2ccncc2)cc1)C(=O)O; Bip = N[C@@H](Cc1ccc(-c2ccccc2)cc1)C(=O)O; Phe(4-NH2) = Nc1ccc(C[C@H](N)C(=O)O)cc1; d(hPhe) = N[C@H](CCc1ccccc1)C(=O)O; d2Thi = N[C@H](Cc1cccs1)C(=O)O; Suc = O=C(CCC(=O)[*:2])[*:1]
Legend:
[1] = test system: TNF-α (degradation of IkB in HeLa cells or A431 cells); assay: Human cell-based assay: inhibition of TNF-α induced degradation of IkB; settings: for inhibition at 10 µM: read-out: Inhibition at Various Compound Concentrations, 10 μM; for inhibition at 5 µM: read-out: Inhibition at Various Compound Concentrations, 5 μM
[2] = test system: rat paw edema model; assay: Rat paw edema model (carrageenan), anti-inflammatory activity; assay type: in vivo, Sprague-Dawley (SD) rats
Protocol: Compounds 3, 4, 10 and 202 were tested in a rat paw edema model to determine anti-inflammatory activity. Seven groups (one for Vehicle A [15 mL PEG400, 3 mL Graves Grain alcohol (190 proof), 1.8 mL dimethylacetamide and 10.2 mL deionized water] alone as a negative control, one for Vehicle B [0.1M NaHCO3] alone as a negative control, one for each of the four test compounds dissolved in Vehicle A, and one for indomethacin dissolved in Vehicle B as a positive control), each group containing six Sprague-Dawley (SD) rats (180-200 g) randomized by weight. Initial paw volumes were measured by placing the right hind limb of the rat up to the top of the hock in a beaker of water sitting on a scale that had been tared to zero and recording the readout.
Rats were pre-treated with either i) one of the test compounds, or ii) a positive or negative control. Vehicle A alone and test compound dissolved in Vehicle A (Compound 3-1.0 mg/kg; Compound 4-0.4 mg/kg; Compound 10-0.5 mg/kg; Compound 202-0.3 mg/kg) were administered by intravenous injection. Vehicle B alone and indomethacin (5 mg/kg in 0.1M NaHCO3) was administered by intraperitoneal injection. Thirty minutes after this pretreatment, rats were anesthetized and injected with 0.1 mL of carrageenan (10 mg/mL in water) in the subplantar region of the right hind foot using a ½ inch 26 gauge needle attached to a 1 cc syringe.
At 2, 4 and 6 hours post-carrageenan injection, the right hind foot of each rat was measured for paw volume as described above.
We next investigated the effect of varying intravenous doses of Compound 202 (0.05, 0.10, 0.30, and 1.00 mg/kg) in the same model using the same protocol (6 rats per group). […] We also investigated the affect of oral dosing (10 mg/kg) of Compound 202 in the same model. For oral dosing, a 2.5 mg/mL suspension of Compound 202 was prepared in Vehicle A. Rats were orally administered 4 mL/kg of that suspension.

[3] = molecular target: T1, TNFα / TNFα receptor (TNFα R1/Fc) (Homo sapiens, UniProt P01375); assay: Inhibition of binding of TNFα to the TNFα receptor (plate ELISA competition); settings: Table 2
T1 construct: purchased R&D Systems
How it was run: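 Plates were coated with TNFα at 15 nM. Test compound and 8.33 nM receptor-Fc (PBST, 2% DMSO) were first mixed in solution for 30 min at room temperature, then transferred to the plates for another 30 min. Competition was read by absorbance at 450 nm after HRP anti-human IgG Fc detection with TMB.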

[4] = 10 μM compound, HeLa or A431 cells
[5] = read-out: Activity (IC50, inhibition of TNFα binding to TNFα R1/Fc)
[6] = 5 μM compound, HeLa or A431 cells
[7] = Table 7, 1 mg/kg IV, 2 h post-carrageenan
[8] = Table 7, 1 mg/kg IV, 4 h post-carrageenan
[9] = Table 7, 1 mg/kg IV, 6 h post-carrageenan
[10] = Table 6, 1 mg/kg IV, 2 h post-carrageenan
[11] = Table 6, 1 mg/kg IV, 4 h post-carrageenan
[12] = Table 6, 1 mg/kg IV, 6 h post-carrageenan

T1 sequence (P01375 77-233 limits assumed, species assumed): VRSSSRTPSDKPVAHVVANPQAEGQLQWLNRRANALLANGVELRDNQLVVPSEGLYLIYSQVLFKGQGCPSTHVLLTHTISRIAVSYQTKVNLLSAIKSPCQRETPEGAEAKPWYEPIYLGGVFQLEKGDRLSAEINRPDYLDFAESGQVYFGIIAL

IC50 [3, 5]	SMILES	inhibition at 10 µM [1, 4]	inhibition at 5 µM [1, 6]	Change in Paw Volume [2, 7]	Change in Paw Volume [2, 8]	Change in Paw Volume [2, 9]	further results
> 100 µM	O=C(O)[C@@H]1Cc2ccc(cc2)NC(=O)[C@H](O)[C@@H](O)C(=O)N[C@@H](Cc2cccs2)C(=O)N[C@@H](Cc2ccc(-c3ccccc3)cc2)C(=O)N[C@@H](Cc2ccccc2)C(=O)N1 [Compound 273]	< 10%	10 to 50%	1.13 ± 0.09 mL	1.52 ± 0.12 mL	1.59 ± 0.16 mL	
< 10 µM	O=C1CCC(=O)N[C@H](CCc2ccccc2)C(=O)N[C@@H](Cc2ccc(-c3ccncc3)cc2)C(=O)N[C@H](Cc2ccccc2)C(=O)N[C@H](C(=O)N[C@@H](Cc2ccccc2)C(=O)O)Cc2ccc(cc2)N1 [Compound 426] ([d(hPhe)][Phe(4-(4-pyridyl))][dF][Phe(4-NH2)]F-OH; linker N-4 via Suc)	10 to 50%	10 to 50%				Change in Paw Volume ([2]; Table 5, 1 mg/kg IV, 2 h post-carrageenan): 0.90 ± 0.15 mL; Change in Paw Volume ([2]; Table 5, 1 mg/kg IV, 4 h post-carrageenan): 1.11 ± 0.18 mL; Change in Paw Volume ([2]; Table 5, 1 mg/kg IV, 6 h post-carrageenan): 1.11 ± 0.23 mL
< 10 µM	O=C1COc2ccc(cc2)C[C@@H](C(=O)O)NC(=O)[C@H](CCc2ccccc2)NC(=O)[C@@H](Cc2ccc(-c3ccccc3)cc2)NC(=O)[C@H](Cc2cccs2)N1 [Compound 348]	50 to 80%	10 to 50%				Change in Paw Volume [2, 10]: 1.13 ± 0.10 mL; Change in Paw Volume [2, 11]: 1.30 ± 0.20 mL; Change in Paw Volume [2, 12]: 1.32 ± 0.11 mL

More lines, now with the values behind:

SMILES	IC50 [3, 5]	inhibition at 10 µM [1, 4]	inhibition at 5 µM [1, 6]	Change in Paw Volume [2, 7]	Change in Paw Volume [2, 8]	Change in Paw Volume [2, 9]	further results
O=C(O)[C@@H]1Cc2ccc(cc2)NC(=O)[C@H](O)[C@@H](O)C(=O)N[C@H](Cc2cccs2)C(=O)N[C@@H](Cc2ccc(-c3ccccc3)cc2)C(=O)N[C@H](Cc2ccccc2)C(=O)N1 [Compound 4]	10 to 30 µM	< 10%					Change in Paw Volume ([2]; Table 3, 0.4 mg/kg IV, 2 h post-carrageenan): 0.72 ± 0.13 mL; Change in Paw Volume ([2]; Table 3, 0.4 mg/kg IV, 4 h post-carrageenan): 1.16 ± 0.16 mL; Change in Paw Volume ([2]; Table 3, 0.4 mg/kg IV, 6 h post-carrageenan): 1.16 ± 0.25 mL
O=C1CCC(=O)N[C@H](Cc2cccs2)C(=O)N[C@@H](Cc2ccc(-c3ccccc3)cc2)C(=O)N[C@H](Cc2ccccc2)C(=O)N[C@H](C(=O)N[C@H](Cc2ccccc2)C(=O)O)Cc2ccc(cc2)N1 [Compound 33] ([d2Thi][Bip][dF][Phe(4-NH2)][dF]-OH; linker N-4 via Suc)	< 10 µM	50 to 80%	10 to 50%				Change in Paw Volume ([2]; Table 4, 1 mg/kg IV, 2 h post-carrageenan): 1.10 ± 0.22 mL; Change in Paw Volume ([2]; Table 4, 1 mg/kg IV, 4 h post-carrageenan): 1.49 ± 0.11 mL; Change in Paw Volume ([2]; Table 4, 1 mg/kg IV, 6 h post-carrageenan): 1.46 ± 0.07 mL
O=C(O)[C@H](Cc1ccccc1)NC(=O)[C@@H]1Cc2ccc(cc2)NC(=O)[C@H](O)[C@@H](O)C(=O)N[C@H](Cc2cccs2)C(=O)N[C@@H](Cc2ccc(-c3ccccc3)cc2)C(=O)N[C@H](Cc2ccccc2)C(=O)N1 [Compound 174]	< 10 µM	10 to 50%	< 10%	1.22 ± 0.08 mL	1.53 ± 0.13 mL	1.70 ± 0.22 mL	
CC(C)(C)Oc1ccc(C[C@@H]2NC(=O)[C@@H](Cc3ccc(-c4ccccc4)cc3)NC(=O)[C@H](Cc3cccs3)NC(=O)COc3ccc(cc3)C[C@@H](C(=O)O)NC2=O)cc1 [Compound 346]	< 10 µM						inhibition at 5 µM [1]: > 80%; inhibition at 10 µM [1]: 50 to 80%; Change in Paw Volume [2, 10]: 1.17 ± 0.06 mL; Change in Paw Volume [2, 11]: 1.20 ± 0.09 mL; Change in Paw Volume [2, 12]: 1.34 ± 0.09 mL
O=C1COc2ccc(cc2)C[C@@H](C(=O)N[C@@H](Cc2ccccc2)C(=O)O)NC(=O)[C@@H](CCc2ccccc2)NC(=O)[C@H](Cc2ccc(-c3ccccc3)cc2)NC(=O)[C@@H](Cc2cccs2)N1 [Compound 156]				1.49 ± 0.24 mL	1.51 ± 0.12 mL	1.81 ± 0.16 mL	inhibition at 5 µM [1]: 50 to 80%; inhibition at 10 µM [1]: > 80%; IC50 ([3]; Activity (IC50, inhibition of TNFα binding to TNFα R1/Fc)): < 10 µM
